Six substances from patent publication US11464840B2, “Universal non-classical MHC I vaccines: HLA-E-restricted antigenic peptides as universal vaccines to treat allergy, inflammation, autoimmune and infectious diseases, and cancers” (priority 2019, dated 2022) can be followed below.

In series [1] the test system is Derlin-1 mRNA. Nature of the series: Derlin-1 mRNA knockdown by siRNA in monocyte-derived dendritic cells (qPCR, ΔΔCt). It is filed as cell-based, human. Conditions: MODC. The procedure:
(§1) Table 1: Summary of Derlin-1 Knockdowns with Various siRNAs. Cells transfected in 12 well plate at 60%-80% confluency. one ul Viromer blue was used per 1 ml final volume. Cells were lysed via centrifugation and resuspended in TRI reagent at time points of either 6 h, 24 h, and 48 h. Lysates were split for both protein verification and qPCR. Knockdowns are estimated using the ΔΔCt method. […] Anti-Derlin-1 siRNA was designed using MITs website (sirna.wi.mit.edu) and siRNA design software (dharmacon.horizondiscovery.com/rnai/sirna). SiRNA were chosen based on the criteria that they would bind no more than 15 nucleotides on off-target mRNA and that they would be capable of knockdown for all four of the Derlin-1 mRNA isoforms. Additionally, siRNAs with 40-60% GC content, no more than 3 identical nucleotides in a row, and 3′ UU overhangs were used. The first siRNA (SEQ ID NO: 65, 5′-[…]-3′) was purchased from TriLink Biotechnologies and the second (SEQ ID NO: 66, 5′-[…]-3′) was purchased from Horizon Discovery. A third, modified siRNA with sequence 5′-SEQ ID NO: 67, O′me/G/O′me/[…]-3′ and DNA bases on the 1st and 8th nucleotide of the antisense strand was also designed and purchased from Horizontal Discovery. Scramble siRNAs were purchased from Horizontal Discovery (D-001810-10-05, ON-TARGET plus Non-targeting Pool).
Derlin-1 forms an integral part of the […] machinery required for transporting classical MHCI, e.g., HLA-A, -B, -C for proteasome degradation. […] In contrast, the protein band of Derlin-1 is entirely missing in Derlin-1 siRNA-treated MoDCs. Transfection of the primary cells were performed using PEI reagents (Viromer Blue vs. Viromer Red). The embodiment of the invention is three-fold. One aspect of the embodiment resides in treating APC with Derlin-1 RNA interference to prevent the generation of endogenous leader peptide as well as to cause dissociation of the HLA-E bound endogenous leader peptides so that Derlin-1-treated APC can be fully loaded with the HLA-E vaccines in the presence of the second costimulatory signal for immune induction.
(Real-time PCR tracks product formation cycle by cycle.)

Series [2] concerns Derlin-1 mRNA. Nature of the series: Derlin-1 mRNA knockdown by siRNA in T2 cells (qPCR, ΔΔCt). The class given is cell-based, human. The procedure: as §1, with “Pool). […]” for “Pool).”
The test system of series [3] is HLA-E. Nature of the series: Upregulation of surface HLA-E by peptide nonamers in TAP-deficient T2 cells (FACS). The following applies: overnight incubation with peptide. It is filed as cell-based, human. The procedure:
FIG. 3. Upregulation of surface HLA-E by peptide nonamers. Screening 9-mers of IgE epitope that were able to induce surface HLA-E expression in tap deficient T2 cells. T2 cells were cultured overnight in present of Panel A: A2 leader peptide-SEQ ID NO: 51, […]) or IgE epitope, B5 (SEQ ID NO: 52, […]), B6 (SEQ ID NO: 53, […]), B8 (SEQ ID NO: 54, […]) and B9 (SEQ ID NO: 55, […]), SP4 (SEQ ID NO: 56, […]), SP7 (SEQ ID NO: 57, […]) and SP11 (SEQ ID NO: 58, […]), and Panel B: IgE epitope of Mixture1 (SEQ ID NO: 59, […], […], […], […] and […]), Mixture2 (SEQ ID NO: 60: […], […], […], […] and […]), and Mixture 3 (SEQ ID NO: 61, […], SGYTPGTIN, […], […] and TINITWLED) at the concentration of 100 μg/ml. Cells were then collected and stained with PE conjugated HLA E followed by FACS flow cytometry analysis.
FIG. 12. Screening of IgE epitope 9-mer which can induce surface HLA-E expression in TAP-deficient T2 cells. Peptide E33 ([…], SEQ ID NO: 68) was predicted by Ige Predict program. T2 cells (2.5×10^5 cells/well) were cultured in the presence of E33 peptide or HLA-A2 leader peptide (10 μg/mL) in 96-well cell culture plate for overnight. Cell were collected and stained with PE anti-human HLA-E antibody followed by flow cytometric analysis (Panel A). […]

Series [4] relates to HLA-E. Nature of the series: ELISA of renatured HLA-E binding to biotinylated leader peptide (C3N). Set-up: species or system human. The procedure:
FIG. 2. […] ELISA for the interaction of denatured HLA-E or covalent HLA-E-β2 microglobulin fusion protein with biotinylated HLA-A2 leader peptide. 10 μg of denatured recombinant HLAE-β2 microglobulin fusion protein, or denatured HLA-E incubated with biotinylated A2 leader peptide (SEQ ID NO: 50, […]) with or without 10 μg β2 microglobulin in 50 μl buffer A (0.5 mM-Tris pH at 6.6) at 18° C. for two days. The complexes were then added into anti-HLA E antibody coated plate (2 μg/ml) and incubated for 1 hour. After washing three times with 1% BSA PBS, HRP-Avidin (Biolegend #405103, 1:1000) was used to detect bound biotinylated leader peptide.
A conformation capture of canonical/non-canonical peptide (C3N) method to HLA-E is designed to test predicted HLA-E binding peptides. HLA-E canonical and nominal peptides predicted from the python algorithm of Igepredict program and any 9 to 12-mer made collinearly with an overlapping IgE sequence can be tested by a binding assay. […] The assay for intact re-natured conformation of HLA-E is dependent on gaining the binding signal using anti-HLA-E coated plate to capture re-natured HLA-E in the presence of beta 2 microglobulin and leader peptides.
(In an ELISA, binding on a coated surface is turned into a signal by an enzyme label.)

Series [5] relates to HLA-E. The series can be described thus: Surface HLA-E expression in PBMCs (FACS). It is filed as cell-based, human. The following applies: anti-CD3 coated plate, 4 days. As for the experimental part: (§2) FIG. 6. Modulation of surface HLA-G and HLA-E expression in PBMCs in present of interferon-β. Fresh buffy coat was obtained from San Diego blood blank. PBMCs (peripheral blood mononuclear cells) were isolated by density gradient centrifugation with Histopague-1077 (Sigma). 5×10^5 of PBMCs were seeded in anti-CD3 (10 μg/ml) coated 96 wells-plate and treated with interferon-I3 for 4 days. Cells were collected and stained with fluorescence-conjugated antibody; Alexa Fluor 488-conjugated anti-human CD8a (Biolegend), Pacific Blue-conjugated human CD4, APC-Cy7-conjugated human CD19 and PE conjugated-HLA-E or PE-Cy 7 conjugated HLA-G (Panel A) or HLA-E (Panel B), followed by fixation with 2% paraformaldehyde. Phenotype and HLA-E or HLA-G (Biolegend) expression were performed by using a FACS, LRSII flow cytometry and the data were processed as describe above.

The subject of series [6] is HLA-E. The series can be described thus: Surface HLA-E expression in immature MoDC cells (FACS). The class given is cell-based, human. Conditions: 100 nM SR11237, 100 nM Bexarotene or Interferon-β 1,000 U, 4 days. The procedure: FIG. 5. […] MoDCs were then collected and stained with fluorescence-conjugated antibody; APC-conjugated anti-CD83 (Biolegend) and PE-conjugated HLA-E (Biolegend) followed by fixation with 2% paraformaldehyde. Phenotype and HLA-E expression of MoDCs were performed by using a FACS, LRSII flow cytometry and the data were processed by using the Flowjo software.

Series [7] deals with HLA-G. The series can be described thus: Surface HLA-G expression in PBMCs (FACS). The class given is cell-based, human. Conditions: anti-CD3 coated plate, 4 days. As for the experimental part:
as §2

“And” between values parts separate entries of the source, which are not always exact repeats. Equal values may be shown once. Ends that are not written are not given here.

As for “5′-GAGGCCAGCAGACUAUUUAUU-3′ [Derlin siRNA #1]”, the “Derlin-1 mRNA knockdown (KD)” value in series [1] (25 nM siRNA, Day 1) came to 36%; in series [1] (50 nM siRNA, Day 1), 30%; in series [2] (T2, 5 nM siRNA, Day 1), 32%; in series [2] (T2, 5 nM siRNA, Day 2), 19%; in series [2] (T2, 10 nM siRNA, Day 1), 50%; in series [2] (T2, 10 nM siRNA, Day 2), 10%. Besides, the “Derlin-1 mRNA knockdown (KD)” value in series [2] (T2, 20 nM siRNA, Day 1) is reported as 25%; in series [2] (T2, 20 nM siRNA, Day 2), 29%.
As for “VMAPRTLLL (VMAPRTLVL; listed as Homo sapiens) [A 2 leader peptide, reference compound]”, the “surface expression of HLA-E in T2 cells” value in series [3] is reported as “enhanced surface expression”.
The same measure, in the same setting: for “TMTLPATTL (listed as Homo sapiens) [E33]” the value was “stronger upregulation”.
Take “O′me/G/O′me/ACUUGGGAGGAAGAAAUUU-3′ (siRNA; 2'-O-methyl at sense 5' end, DNA at antisense positions 1 and 8, further chemistry not given here; listed as Homo sapiens) [Derlin siRNA #3]”: the “Derlin-1 mRNA knockdown (KD)” value was found to be 62% in series [1] (5 nM siRNA, Day 1); 37% in series [1] (5 nM siRNA, Day 2); 41% in series [1] (10 nM siRNA, Day 1); 33% in series [1] (10 nM siRNA, Day 2); 59% in series [2] (T2, 1 nM siRNA, 6 Hours); 33% in series [2] (T2, 2 nM siRNA, 6 Hours). In addition, the “Derlin-1 mRNA knockdown (KD)” value came out at 28% in series [2] (T2, 4 nM siRNA, 6 Hours) and 17% in series [2] (T2, 8 nM siRNA, 6 Hours).
With “NPRKVTAYL (also: biotin, place not given here; listed as Homo sapiens) [HLA-E leader peptide]”, the “increment of HLA-E binding signal” value in series [4] (leader peptide 1.0 μg/ml versus 0.1 μg/ml) was ~10 fold and ~15 fold. Further, the “HLA-E binding signal (ELISA)” value in series [4] (leader peptide addition at 0.1 μg/ml) is “around 0.02 OD”.
Take Interferon β: in series [5], the “HLA-E expression in CD4+ T cells” value was “decrease”, the “HLA-E expression in CD8+ T cells” value is recorded as “decrease” and the “HLA-E expression in CD19+ cells” value is “increased”. Besides, the “HLA-E expression of immature MoDC cells” value in series [6] is listed as “increasing intense expression”. Further, in series [7], the “expression of HLA-G in CD4+ T cells” value was “about two-fold”, the “expression of HLA-G in CD8+ T cells” value is reported as “about two-fold” and the “expression of HLA-G in CD19+ cells” value is on record as “increased”.
